According to article PMC2803762 (Molecules, 2008):

Test system: pig liver esterase (PLE; EC 3.1.1.1)
Assay: release of p-nitroaniline at […] nm, saturation curve
Format: biochemical, Sus scrofa
Settings: PBS pH 7.7, 10% v/v DMSO, 25 °C, PLE 0.25 μg/mL, substrate 0.5-33 μM

CC(=O)Oc1cc(C)cc(C)c1C(C)(C)CC(=O)Nc1ccc([N+](=O)[O-])cc1 [compound 1, prochromophore 1]
Km: 14 µM
